These results are taken from the supplement of paper PMC11208160.
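Also: IS621 recombinase and bridge RNA in Escherichia coli cells.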

This data set in a line: recombinant barcode read abundance after kanamycin selection (control-corrected) (log10(CPM+1)); higher = more efficient recombination; sequences stand for … in AGTGCAGAGAAAATCGGCCAGTTTTCTCTGCCTGCAGTCCGCATGCCGT…AGATTTATGCAGCGGACTGCCTTTCTCCCAAAGTGATAAACCGGACAGTATCATGGACCGGTTTTCCCGGTAATCCGTATTTGCAAGGTTGGTTTCACT; site = the 11-nt target. A digest of the protocol: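 Values are log10(CPM+1) from a pooled E. coli screen of targets paired with IS621 bridge RNA target-binding loops. Recombination efficiency here means counts per million of recombinant-junction barcodes, averaged and control-corrected. Plates were chloramphenicol/ampicillin LB agar for the control and chloramphenicol/ampicillin/kanamycin with 0.1 mM IPTG, two replicates each.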
Consider “CTATGTGCTTGGGTTCTAACCTGTTGCAT (site CTATGTGCTAA)”, for which the “recombinant barcode read abundance (log10)” value was 0.295.
As to “CTATGTGCTTGGGTTCTAACCTGTTGCAT (site CTATGTGCTAC)”, the “recombinant barcode read abundance (log10)” value worked out at 0.168.
In the case of “CTATGTGCTTGGGTTCTAACCTGTTGCAT (site CTATGTGCTAG)” it was 0.0201; in that of “CTATGTGCTTGGGTTCTAACCTGTTGCAT (site CTATGTGCTAT)”, 0.109.
With “CTATTCACTTGGGTTCTAACCTGTTGCCT (site CTATTCACTAG)”, the “recombinant barcode read abundance (log10)” value is 1.34.
Turning to “CTATTCACTTGGGTTCTAACCTGTTGCCT (site CTATTCCCTAG)”, the “recombinant barcode read abundance (log10)” value is 0.0733.
The value for “CTATTCACTTGGGTTCTAACCTGTTGCCT (site CTATTCGCTAG)” was 0.0529; that for “CTATTCACTTGGGTTCTAACCTGTTGCCT (site CTATTCTCTAG)” was 0.091; that for “CTATTCTCTTGGGTTCTAACCTGTTGCTA (site CTATACTCTTG)” was 0.115.
Turning to “CTATTCTCTTGGGTTCTAACCTGTTGCTA (site CTATTCTCTTA)”, the “recombinant barcode read abundance (log10)” value was found to be 1.62.
Take “CTATTGTCTTGGGTTCTAACCTGTTGCGT (site CTATTGTCTAC)”: the “recombinant barcode read abundance (log10)” value came to 2.78.
In the case of “CTATTGTCTTGGGTTCTAACCTGTTGCGT (site CTATTGTCTCC)” it was 0.019.
The value for “CTATTGTCTTGGGTTCTAACCTGTTGCGT (site CTATTGTCTGC)” was 0.475; that for “CTATTGTCTTGGGTTCTAACCTGTTGCGT (site CTATTGTCTTC)” was 0.0685; that for “CTATTTACTTGGGTTCTAACCTGTTGCGG (site CTATTTACTCC)” was 0.781.
The value for “CTATTTACTTGGGTTCTAACCTGTTGCGG (site TGTCGGCCTAA)” was 0.0533; that for “CTATTTCCTTGGGTTCTAACCTGTTGCCT (site CGGTTTCCTAG)” was 0.032; that for “CTATTTCCTTGGGTTCTAACCTGTTGCCT (site CTATTTCCTAG)” was 0.284.
For “CTCAAACCTTGGGTTCTAACCTGTTGCTT (site CTCAAACCTAA)”, the “recombinant barcode read abundance (log10)” value was 0.355.
With “CTCAAACCTTGGGTTCTAACCTGTTGCTT (site CTCACACCTAA)”, the “recombinant barcode read abundance (log10)” value stood at 0.15.
Regarding “CTCAAGACTTGGGTTCTAACCTGTTGCGG (site CTCAAGACTCC)”, the “recombinant barcode read abundance (log10)” value came to 2.5.
The value for “CTCAAGACTTGGGTTCTAACCTGTTGCGG (site CTCTAGACTCA)” was 0.219; that for “CTCACACCTTGGGTTCTAACCTGTTGCAG (site CTCACACCTCT)” was 0.968.
Turning to “CTCACACCTTGGGTTCTAACCTGTTGCAG (site TGTCATGCTAC)”, the “recombinant barcode read abundance (log10)” value is 0.331.
The value for “CTCACGCCTTGGGTTCTAACCTGTTGCTT (site CACACGCCTAG)” was 0.228; that for “CTCACGCCTTGGGTTCTAACCTGTTGCTT (site CTCACGCCTAA)” was 0.237; that for “CTCAGGTCTTGGGTTCTAACCTGTTGCCA (site CTCAGGTCTAG)” was 0.18.
Regarding “CTCAGGTCTTGGGTTCTAACCTGTTGCCA (site CTCAGGTCTTG)”, the “recombinant barcode read abundance (log10)” value amounted to 0.193.
For the sequence “CTCATTCCTTGGGTTCTAACCTGTTGCAT (site CTCATTCCTAA)”, the “recombinant barcode read abundance (log10)” value was determined as 0.0718.
The value for “CTCATTCCTTGGGTTCTAACCTGTTGCAT (site CTCATTCCTAC)” was 0.0351; that for “CTCATTCCTTGGGTTCTAACCTGTTGCAT (site CTCATTCCTAG)” was 0.112.
The value for “CTCATTCCTTGGGTTCTAACCTGTTGCAT (site CTCATTCCTAT)” was 0.523; that for “CTCATTCCTTGGGTTCTAACCTGTTGCTT (site CTCATTCCTAA)” was 0.211; that for “CTCATTCCTTGGGTTCTAACCTGTTGCTT (site CTCATTCCTAC)” was 0.482.
Take “CTCATTCCTTGGGTTCTAACCTGTTGCTT (site CTCATTCCTAG)”: the “recombinant barcode read abundance (log10)” value was determined as 0.0511.
On to “CTCATTCCTTGGGTTCTAACCTGTTGCTT (site CTCATTCCTAT)”, for which the “recombinant barcode read abundance (log10)” value was 0.0615.
In the case of “CTCCATCCTTGGGTTCTAACCTGTTGCCT (site CTCCATACTAG)”, the “recombinant barcode read abundance (log10)” value came to 0.
In the case of “CTCCATCCTTGGGTTCTAACCTGTTGCCT (site CTCCATCCTAG)” it was 0.898.
The value for “CTCCATCCTTGGGTTCTAACCTGTTGCCT (site CTCCATGCTAG)” was 0.0326; that for “CTCCATCCTTGGGTTCTAACCTGTTGCCT (site CTCCATTCTAG)” was 0.0176.
The value for “CTCCATGCTTGGGTTCTAACCTGTTGCCT (site CTCCATACTAG)” was 0.325; that for “CTCCATGCTTGGGTTCTAACCTGTTGCCT (site CTCCATCCTAG)” was 0.312; that for “CTCCATGCTTGGGTTCTAACCTGTTGCCT (site CTCCATGCTAG)” was 1.19.
Take “CTCCATGCTTGGGTTCTAACCTGTTGCCT (site CTCCATTCTAG)”: the “recombinant barcode read abundance (log10)” value came to 0.0894.
The value for “CTCCATTCTTGGGTTCTAACCTGTTGCCT (site CTCCATACTAG)” was 0.0751; that for “CTCCATTCTTGGGTTCTAACCTGTTGCCT (site CTCCATCCTAG)” was 0.314.
In the case of “CTCCATTCTTGGGTTCTAACCTGTTGCCT (site CTCCATGCTAG)” it was 0.129; in that of “CTCCATTCTTGGGTTCTAACCTGTTGCCT (site CTCCATTCTAG)”, 0.739.
In the case of “CTCCCGACTTGGGTTCTAACCTGTTGCGC (site AGAGTAGCTTA)”, the “recombinant barcode read abundance (log10)” value amounted to 0.119.
Take “CTCCCGACTTGGGTTCTAACCTGTTGCGC (site CTCCCGACTGC)”: the “recombinant barcode read abundance (log10)” value is 2.08.
Regarding “CTCCCTGCTTGGGTTCTAACCTGTTGCCT (site CTCCCTGCTAG)”, the “recombinant barcode read abundance (log10)” value was 1.1.
The value for “CTCCCTGCTTGGGTTCTAACCTGTTGCCT (site GAGGTCCCTCC)” was 0.0158; that for “CTCCGCCCTTGGGTTCTAACCTGTTGCTT (site CTCCGACCTAA)” was 0.121; that for “CTCCGCCCTTGGGTTCTAACCTGTTGCTT (site CTCCGCCCTAA)” was 0.578.
The value for “CTCCGCCCTTGGGTTCTAACCTGTTGCTT (site CTCCGGCCTAA)” was 0.106.
As for “CTCCGCCCTTGGGTTCTAACCTGTTGCTT (site CTCCGTCCTAA)”, the “recombinant barcode read abundance (log10)” value came to 0.0629.
In the case of “CTCCGCTCTTGGGTTCTAACCTGTTGCCT (site ATCCGCTCTAG)”, the “recombinant barcode read abundance (log10)” value was 0.211.
Consider “CTCCGCTCTTGGGTTCTAACCTGTTGCCT (site CTCCGCTCTAG)”, for which the “recombinant barcode read abundance (log10)” value worked out at 2.28.
In the case of “CTCCGCTCTTGGGTTCTAACCTGTTGCCT (site GTCCGCTCTAG)” it was 0.0686; in that of “CTCCGCTCTTGGGTTCTAACCTGTTGCCT (site TTCCGCTCTAG)”, 0.113.
In the case of “CTCCGTCCTTGGGTTCTAACCTGTTGCGT (site CTCCGCCCTAG)” it was 0.23.
The value for “CTCCGTCCTTGGGTTCTAACCTGTTGCGT (site CTCCGTCCTAC)” was 2.54; that for “CTCGAATCTTGGGTTCTAACCTGTTGCTT (site CTCGAATCTAA)” was 0.897; that for “CTCGAATCTTGGGTTCTAACCTGTTGCTT (site GGGATCCCTCC)” was 0.101.
With “CTCGACCCTTGGGTTCTAACCTGTTGCAT (site CTCGACCCTAT)”, the “recombinant barcode read abundance (log10)” value came to 2.4.
Consider “CTCGACCCTTGGGTTCTAACCTGTTGCAT (site GGGCCTGCTTG)”, for which the “recombinant barcode read abundance (log10)” value came to 1.66.
The value for “CTCGATTCTTGGGTTCTAACCTGTTGCAT (site CTCAATTCTAT)” was 0.355; that for “CTCGATTCTTGGGTTCTAACCTGTTGCAT (site CTCCATTCTAT)” was 0.194.
The value for “CTCGATTCTTGGGTTCTAACCTGTTGCAT (site CTCGATTCTAT)” was 1.66; that for “CTCGATTCTTGGGTTCTAACCTGTTGCAT (site CTCTATTCTAT)” was 0.213; that for “CTCGGTTCTTGGGTTCTAACCTGTTGCCT (site CTCGGTACTTG)” was 0.128.
In the case of “CTCGGTTCTTGGGTTCTAACCTGTTGCCT (site CTCGGTTCTAG)” it was 1.41.
Take “CTCGTAACTTGGGTTCTAACCTGTTGCCT (site CTCGTAACTAG)”: the “recombinant barcode read abundance (log10)” value came to 0.361.
As to “CTCGTAACTTGGGTTCTAACCTGTTGCCT (site CTCGTCACTAG)”, the “recombinant barcode read abundance (log10)” value stood at 0.0602.
Turning to “CTCGTAACTTGGGTTCTAACCTGTTGCCT (site CTCGTGACTAG)”, the “recombinant barcode read abundance (log10)” value amounted to 0.123.
The value for “CTCGTAACTTGGGTTCTAACCTGTTGCCT (site CTCGTTACTAG)” was 1.13; that for “CTCTACACTTGGGTTCTAACCTGTTGCTG (site CTCGACACTCA)” was 0.116.
